Reference: paper PMC11775015, “Parishin B blocking TRIB3-AKT1 interaction inhibits breast cancer lung metastasis” (Frontiers in Pharmacology, 2025)

Biological target: T1, TRIB3 (Tribbles homolog 3) (Homo sapiens, UniProt Q96RU7)
T1 construct: endogenous untagged full-length protein in RIPA lysate of MDA-MB-231 cells, detected by Western blot (anti-TRIB3 Abcam ab75846); NP_066981.2 printed for the homology model
T1 sequence (Q96RU7 1-358): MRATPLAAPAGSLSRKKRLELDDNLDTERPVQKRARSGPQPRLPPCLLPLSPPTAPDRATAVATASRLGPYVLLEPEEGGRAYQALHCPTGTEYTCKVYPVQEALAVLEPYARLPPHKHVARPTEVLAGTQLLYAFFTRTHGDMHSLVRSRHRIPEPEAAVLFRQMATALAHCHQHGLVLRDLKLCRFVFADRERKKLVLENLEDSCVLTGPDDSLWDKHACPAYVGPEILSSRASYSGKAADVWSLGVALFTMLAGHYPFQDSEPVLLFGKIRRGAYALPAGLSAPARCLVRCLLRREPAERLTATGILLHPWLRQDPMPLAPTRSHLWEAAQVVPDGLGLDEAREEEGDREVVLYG
Assay: CETSA (cell lysate, Western blot)
Assay type: biochemical
Settings: 10 uM PB, 1 h, MDA-MB-231 RIPA lysate; 35-60 C for 10 min

SMILES: O=C(O)CC(O)(CC(=O)OCc1ccc(O[C@@H]2O[C@H](CO)[C@@H](O)[C@H](O)[C@H]2O)cc1)C(=O)OCc1ccc(O[C@@H]2O[C@H](CO)[C@@H](O)[C@H](O)[C@H]2O)cc1 (stereo partly shown) [PB, Parishin B]
- CETSA (cell lysate, Western blot): PB enhances the thermal stability of TRIB3, resulting in improved thermal stabilization of TRIB3
